Data from ChEMBL document CHEMBL4837183, “Antiproliferative Bufadienolides from the Bulbs of Drimia altissima” (2021).
Values belong to the compound of their own block, whether it stands above or below them.

Experiments:
Type in all cases: functional
[1] = test system: HCT-116; test: Growth inhibition of human HCT-116 cells measured after 48 hrs by SRB assay
[2] = test system: HL-60; test: Growth inhibition of human HL-60 cells measured after 48 hrs by SRB assay
[3] = test system: M14; test: Growth inhibition of human M14 cells measured after 48 hrs by SRB assay
[4] = test system: BT-549; test: Growth inhibition of human BT-549 cells measured after 48 hrs by SRB assay
[5] = test system: OVCAR-5; test: Growth inhibition of human OVCAR-5 cells measured after 48 hrs by SRB assay
[6] = test system: Hs-578T; test: Growth inhibition of human Hs-578T cells measured after 48 hrs by SRB assay
[7] = test system: HT-29; test: Growth inhibition of human HT-29 cells measured after 48 hrs by SRB assay
[8] = test system: NCI/ADR-RES; test: Growth inhibition of human NCI/ADR-RES cells measured after 48 hrs by SRB assay
[9] = test system: HCC 2998; test: Growth inhibition of human HCC 2998 cells measured after 48 hrs by SRB assay
[10] = test system: K562; test: Growth inhibition of human K562 cells measured after 48 hrs by SRB assay
[11] = test system: NCI-H460; test: Growth inhibition of human NCI-H460 cells measured after 48 hrs by SRB assay
[12] = test system: DU-145; test: Growth inhibition of human DU-145 cells measured after 48 hrs by SRB assay
[13] = test system: SW-620; test: Growth inhibition of human SW-620 cells measured after 48 hrs by SRB assay
[14] = test system: KM12; test: Growth inhibition of human KM12 cells measured after 48 hrs by SRB assay
[15] = test system: UACC-62; test: Growth inhibition of human UACC-62 cells measured after 48 hrs by SRB assay
[16] = test system: MDA-MB-435; test: Growth inhibition of human MDA-MB-435 cells measured after 48 hrs by SRB assay
[17] = test system: SK-OV-3; test: Growth inhibition of human SK-OV-3 cells measured after 48 hrs by SRB assay
[18] = test system: T47D; test: Growth inhibition of human T47D cells measured after 48 hrs by SRB assay
[19] = test system: A549; test: Growth inhibition of human A549 cells measured after 48 hrs by SRB assay
[20] = test system: TK-10; test: Growth inhibition of human TK-10 cells measured after 48 hrs by SRB assay
[21] = test system: HOP-62; test: Growth inhibition of human HOP-62 cells measured after 48 hrs by SRB assay
[22] = test system: ACHN; test: Growth inhibition of human ACHN cells measured after 48 hrs by SRB assay
[23] = test system: IGROV-1; test: Growth inhibition of human IGROV-1 cells measured after 48 hrs by SRB assay
[24] = test system: NCI-H322M; test: Growth inhibition of human NCI-H322M cells measured after 48 hrs by SRB assay
[25] = test system: SNB-75; test: Growth inhibition of human SNB-75 cells measured after 48 hrs by SRB assay
[26] = test system: SF-268; test: Growth inhibition of human SF-268 cells measured after 48 hrs by SRB assay
[27] = test system: CCRF-CEM; test: Growth inhibition of human CCRF-CEM cells measured after 48 hrs by SRB assay
[28] = test system: MDA-MB-468; test: Growth inhibition of human MDA-MB-468 cells measured after 48 hrs by SRB assay
[29] = test system: UO-31; test: Growth inhibition of human UO-31 cells measured after 48 hrs by SRB assay
[30] = test system: MCF7; test: Growth inhibition of human MCF7 cells measured after 48 hrs by SRB assay
[31] = test system: OVCAR-3; test: Growth inhibition of human OVCAR-3 cells measured after 48 hrs by SRB assay
[32] = test system: SK-MEL-5; test: Growth inhibition of human SK-MEL-5 cells measured after 48 hrs by SRB assay
[33] = test system: 786-0; test: Growth inhibition of human 786-0 cells measured after 48 hrs by SRB assay
[34] = test system: NCI-H23; test: Growth inhibition of human NCI-H23 cells measured after 48 hrs by SRB assay
[35] = test system: OVCAR-8; test: Growth inhibition of human OVCAR-8 cells measured after 48 hrs by SRB assay
[36] = test system: MDA-MB-231; test: Growth inhibition of human MDA-MB-231 cells measured after 48 hrs by SRB assay
[37] = test system: HCT-15; test: Growth inhibition of human HCT-15 cells measured after 48 hrs by SRB assay
[38] = test system: SNB-19; test: Growth inhibition of human SNB-19 cells measured after 48 hrs by SRB assay
[39] = test system: SN12C; test: Growth inhibition of human SN12C cells measured after 48 hrs by SRB assay
[40] = test system: PC-3; test: Growth inhibition of human PC-3 cells measured after 48 hrs by SRB assay
[41] = test system: MOLT-4; test: Growth inhibition of human MOLT-4 cells measured after 48 hrs by SRB assay
[42] = test system: HOP-92; test: Growth inhibition of human HOP-92 cells measured after 48 hrs by SRB assay
[43] = test system: SK-MEL-2; test: Growth inhibition of human SK-MEL-2 cells measured after 48 hrs by SRB assay
[44] = test system: NCI-H226; test: Growth inhibition of human NCI-H226 cells measured after 48 hrs by SRB assay
[45] = test system: SF-295; test: Growth inhibition of human SF-295 cells measured after 48 hrs by SRB assay
[46] = test system: SR; test: Growth inhibition of human SR cells measured after 48 hrs by SRB assay
[47] = test system: U-251; test: Growth inhibition of human U-251 cells measured after 48 hrs by SRB assay
[48] = test system: SK-MEL-28; test: Growth inhibition of human SK-MEL-28 cells measured after 48 hrs by SRB assay
[49] = test system: LOX IMVI; test: Growth inhibition of human LOX IMVI cells measured after 48 hrs by SRB assay
[50] = test system: UACC-257; test: Growth inhibition of human UACC-257 cells measured after 48 hrs by SRB assay
[51] = test system: Malme-3M; test: Growth inhibition of human Malme-3M cells measured after 48 hrs by SRB assay
[52] = test system: CAKI-1; test: Growth inhibition of human CAKI-1 cells measured after 48 hrs by SRB assay
[53] = test system: SF-539; test: Growth inhibition of human SF-539 cells measured after 48 hrs by SRB assay
[54] = test system: RXF 393; test: Growth inhibition of human RXF 393 cells measured after 48 hrs by SRB assay
[55] = test system: NCI-H522; test: Growth inhibition of human NCI-H522 cells measured after 48 hrs by SRB assay
[56] = test system: COLO 205; test: Growth inhibition of human COLO 205 cells measured after 48 hrs by SRB assay
[57] = test system: A498; test: Growth inhibition of human A498 cells measured after 48 hrs by SRB assay

- GI50 [1]: 4440 nM
- GI50 [2]: 7370 nM
- GI50 [4]: 5010 nM
- GI50 [5]: > 10000 nM
- GI50 [7]: > 10000 nM
- GI50 [9]: > 10000 nM
- GI50 [10]: > 10000 nM
- GI50 [11]: 3530 nM
- GI50 [12]: 6100 nM
- GI50 [13]: 7060 nM
- GI50 [16]: > 10000 nM
- GI50 [17]: > 10000 nM
- GI50 [18]: > 10000 nM
- GI50 [19]: 4780 nM
- GI50 [22]: 2320 nM
- GI50 [24]: > 10000 nM
- GI50 [27]: 6970 nM
- GI50 [28]: > 10000 nM
- GI50 [30]: 7710 nM
- GI50 [31]: 4000 nM
- GI50 [32]: 5090 nM
- GI50 [33]: 7330 nM
- GI50 [34]: 8310 nM
- GI50 [35]: > 10000 nM
- GI50 [36]: > 10000 nM
- GI50 [37]: > 10000 nM
- GI50 [40]: > 10000 nM
- GI50 [41]: 5120 nM
- GI50 [43]: > 10000 nM
- GI50 [44]: > 10000 nM
- GI50 [47]: > 10000 nM
- GI50 [48]: > 10000 nM
- GI50 [55]: 3960 nM
- GI50 [56]: > 10000 nM
Compound: CC(=O)OC[C@H]1O[C@@H](O[C@@H]2C=C3CC[C@@H]4[C@H](C(=O)C[C@]5(C)[C@@H](c6ccc(=O)oc6)CC[C@]45O)[C@@]3(C)CC2)[C@H](OC(C)=O)[C@@H](OC(C)=O)[C@@H]1OC(C)=O
- GI50 [3]: > 10000 nM
- GI50 [6]: 3790 nM
- GI50 [8]: > 10000 nM
- GI50 [14]: > 10000 nM
- GI50 [15]: > 10000 nM
- GI50 [20]: 6220 nM
- GI50 [21]: 6880 nM
- GI50 [23]: > 10000 nM
- GI50 [25]: > 10000 nM
- GI50 [26]: 5640 nM
- GI50 [29]: 6060 nM
- GI50 [38]: > 10000 nM
- GI50 [39]: 4850 nM
- GI50 [42]: > 10000 nM
- GI50 [45]: 7350 nM
- GI50 [46]: > 10000 nM
- GI50 [49]: > 10000 nM
- GI50 [50]: > 10000 nM
- GI50 [51]: 9730 nM
- GI50 [52]: 7280 nM
- GI50 [53]: 6010 nM
- GI50 [54]: 2310 nM
- GI50 [57]: 2890 nM

Compound: C[C@]12CC[C@H](O)C=C1CC[C@@H]1[C@@H]2[C@@H](O)C[C@]2(C)[C@@H](c3ccc(=O)oc3)CC[C@]12O
- GI50 [1]: 399 nM
- GI50 [2]: 563 nM
- GI50 [3]: 2570 nM
- GI50 [4]: 371 nM
- GI50 [5]: 2360 nM
- GI50 [6]: 337 nM
- GI50 [7]: 689 nM
- GI50 [8]: 657 nM
- GI50 [9]: 4320 nM
- GI50 [10]: 1390 nM
- GI50 [11]: 365 nM
- GI50 [12]: 478 nM
- GI50 [13]: 559 nM
- GI50 [14]: 3200 nM
- GI50 [15]: 1760 nM
- GI50 [16]: 1800 nM
- GI50 [17]: 2670 nM
- GI50 [18]: 1540 nM
- GI50 [19]: 353 nM
- GI50 [20]: 750 nM
- GI50 [21]: 454 nM
- GI50 [22]: 351 nM
- GI50 [23]: 1820 nM
- GI50 [24]: 1230 nM
- GI50 [25]: 1170 nM
- GI50 [26]: 538 nM
- GI50 [27]: 588 nM
- GI50 [28]: 3750 nM
- GI50 [29]: 653 nM
- GI50 [30]: 473 nM
- GI50 [31]: 531 nM
- GI50 [32]: 703 nM
- GI50 [33]: 541 nM
- GI50 [34]: 664 nM
- GI50 [35]: 780 nM
- GI50 [36]: 5420 nM
- GI50 [37]: 808 nM
- GI50 [38]: 3860 nM
- GI50 [39]: 468 nM
- GI50 [40]: 1330 nM
- GI50 [41]: 369 nM
- GI50 [42]: 2080 nM
- GI50 [43]: 2330 nM
- GI50 [44]: 1760 nM
- GI50 [45]: 660 nM
- GI50 [46]: 1100 nM
- GI50 [47]: 1280 nM
- GI50 [48]: 2970 nM
- GI50 [49]: 1030 nM
- GI50 [50]: 2630 nM
- GI50 [51]: 1260 nM
- GI50 [52]: 436 nM
- GI50 [53]: 577 nM
- GI50 [54]: 298 nM
- GI50 [55]: 377 nM
- GI50 [56]: 3400 nM
- GI50 [57]: 362 nM
